Source: patent US20070116781A1, “Hydrogen Cyanamide Pesticide Formulations” (priority 2005, published 2007)

Tests used:
Dorylaimida nematodes = test: Effect on beneficial nematodes in covered pots of silt loam; type: in vivo
Procedure: In this study, the soil was naturally infested with four species of nematodes, two of which were deleterious and two beneficial, and observations were made of both the nematode survival and the growth of the soybean plants.
Stock solutions of hydrogen cyanamide at 1.0% by weight and propionic acid at 5.0% by weight, both in water, were prepared, the hydrogen cyanamide from a phosphate-buffered 50% aqueous solution. Planting pots measuring 10 cm in diameter, each containing 1 kg of soil, were used. The soil was silt loam from a cotton field, pH 6.2, CEC<10 meq/100 g soil, organic matter<1.0%. The treatment chemicals were combined in various dilutions such that 100 mL of the combined dilutions contained the desired amount of each chemical for each test. The combined dilutions were then applied to the soil surface in each pot, at 100 mL of combined dilution per pot. The dilutions were selected to achieve target application rates expressed in milligrams of the treatment chemical per kilogram of soil, with 1 milligram of treatment chemical per kilogram of soil being approximately equal to 2 kilograms of the chemical per hectare of soil or 2 pounds of the chemical per acre of soil.
Immediately after the treatment chemicals were applied, each pot was covered by a thick (1.5 mil), clear, low-density polyethylene bag. After twelve days, the bags were removed and soil samples were taken from each pot for nematological analysis by the salad bowl technique of Rodriguez-Kabana, R., and M. H. Pope, Nematropica, 11: 175-186 (1981). The results of these analyses are listed in Table I as pre-plant test results. The results for the two deleterious nematodes are also shown as plots of the number of nematodes vs. the hydrogen cyanamide application rate in FIGS. 1 and 2.
After the polyethylene bags were removed, each pot was planted with Hutcheson soybean seeds at 5 seeds per pot, and the seeds were allowed to germinate and the plants to grow for 45 days. The resulting plants were then removed from the pots, the root systems were washed, and the number of plants in each pot was determined. The weights of both fresh shoots and roots were also determined as well as the shoot height and the relative health of the root system, using a subjective index. Soil samples were also collected, and the soil and roots were incubated to determine nematode populations. Treatments were arranged in randomized complete block design with seven replications per treatment, and statistical evaluation of the data was performed with analyses of variance (ANOVA) and standard regression procedures. Fischer's Least Significant Difference at p 0.05 was calculated when appropriate. The results of these tests are listed as final test results in Tables II, III, and IV, with nematode populations in the soil listed in Table II, the nematode populations in the root systems in Table III, and the plant and root parameters of the soybean shoots in Table IV.

all weeds = test: Herbicidal activity, cyanamide and propionic acid, pre-emergence, covered pots; type: in vivo
Procedure: The weeds used in these tests were grown from a standard weed seed pack of common annual and perennial weeds representing an extreme weed situation. The weeds included yellow nutsedge (Cyperus esculentus), crabgrass (Digitaria sanguinalis), pigweed (Amaranthus spp.), momingglory (Ipomoea spp.), sicklepod (Senna obtusifolia) and other annual weeds. Observations of the effects on the weed population as a whole were made, and individual observations were made for yellow nutsedge, crabgrass, and sicklepod. Stock solutions of hydrogen cyanamide at 1.25% by weight and propionic acid at 5.0% by weight, both in water, were prepared, the hydrogen cyanamide from a phosphate-buffered 50% aqueous solution. […] Data analyses were performed in the same manner as Example 1. The results expressed in weeds per pot are listed in Table V for all weeds, Table VI for yellow nutsedge, Table VII for crabgrass, and Table VIII for sicklepod, all at various application rates for both hydrogen cyanamide and propionic acid.

combined weed species = test: Herbicidal activity, cyanamide and citric acid, pre-emergence, covered pots; type: in vivo
Procedure: (§1) The weeds used in these tests were grown from a standard weed seed pack of common annual and perennial weeds representing an extreme weed situation. The weeds included crabgrass (Digitaria sanguinalis), yellow nutsedge (Cyperus esculentus), […] (Ipomoea spp.), pigweed (Amaranthus spp.), and other annual weeds. Observations of the effects on the weed population as a whole were made, and individual observations were made for crabgrass, yellow nutsedge, sicklepod, morningglory, and pigweed. Stock solutions of hydrogen cyanamide at 1.25% by weight and citric acid at 5.0% by weight, both in water, were prepared, the hydrogen cyanamide from a phosphate-buffered 50% aqueous solution. […] Data analyses were performed in the same manner as Example 1. The results expressed in weeds per pot are listed in Table XIV for all weeds, Table XV for crabgrass, Table XVI for yellow nutsedge, Table XVII for sicklepod, Table XVIII for morningglory, and Table XIX for pigweed, all at various application rates for hydrogen cyanamide, with and without citric acid.

morningglory = test: as above; type: in vivo, Ipomoea spp.
Procedure: as §1

[1] = 13 d after treatment, cyanamide 50 mg/kg soil
[2] = 13 d after treatment, cyanamide 100 mg/kg soil
[3] = 13 d after treatment, cyanamide 150 mg/kg soil
[4] = 13 d after treatment, cyanamide 200 mg/kg soil
[5] = 13 d after treatment, cyanamide 250 mg/kg soil
[6] = 19 d after treatment, cyanamide 50 mg/kg soil
[7] = 19 d after treatment, cyanamide 100 mg/kg soil
[8] = 19 d after treatment, cyanamide 150 mg/kg soil
[9] = 19 d after treatment, cyanamide 200 mg/kg soil
[10] = 19 d after treatment, cyanamide 250 mg/kg soil
[11] = 26 d after treatment, cyanamide 50 mg/kg soil
[12] = 26 d after treatment, cyanamide 100 mg/kg soil
[13] = 26 d after treatment, cyanamide 150 mg/kg soil
[14] = 26 d after treatment, cyanamide 200 mg/kg soil
[15] = 26 d after treatment, cyanamide 250 mg/kg soil

For `N#CN` [Cyanamide, hydrogen cyanamide], the “Surviving Nematodes: Dorylaimida” value (Dorylaimida nematodes; 12 d after treatment, pre-plant, cyanamide 20 mg/kg soil) was 24 per 100 mL of soil, the “Surviving Nematodes: Dorylaimida” value (Dorylaimida nematodes; 12 d after treatment, pre-plant, cyanamide 40 mg/kg soil) was 20 per 100 mL of soil and the “Surviving Nematodes: Dorylaimida” value (Dorylaimida nematodes; 12 d after treatment, pre-plant, cyanamide 60 mg/kg soil) was 5 per 100 mL of soil. For the same compound, the “Surviving Nematodes: Dorylaimida” value (Dorylaimida nematodes; 12 d after treatment, pre-plant, cyanamide 80 mg/kg soil) was 6 per 100 mL of soil, the “Surviving Nematodes: Dorylaimida” value (Dorylaimida nematodes; 12 d after treatment, pre-plant, cyanamide 120 mg/kg soil) was 0 per 100 mL of soil and the “Surviving Nematodes: Dorylaimida” value (Dorylaimida nematodes; 57 d after treatment, 45 d after planting, cyanamide 20 mg/kg soil) was 9 per 100 mL of soil. For the same compound, the “Surviving Nematodes: Dorylaimida” value (Dorylaimida nematodes; 57 d after treatment, 45 d after planting, cyanamide 40 mg/kg soil) was 8 per 100 mL of soil, the “Surviving Nematodes: Dorylaimida” value (Dorylaimida nematodes; 57 d after treatment, 45 d after planting, cyanamide 60 mg/kg soil) was 4 per 100 mL of soil and the “Surviving Nematodes: Dorylaimida” value (Dorylaimida nematodes; 57 d after treatment, 45 d after planting, cyanamide 80 mg/kg soil) was 5 per 100 mL of soil. The “Surviving Nematodes: Dorylaimida” value (Dorylaimida nematodes; 57 d after treatment, 45 d after planting, cyanamide 120 mg/kg soil) was 0 per 100 mL of soil, the “Weeds Per Pot: All Weeds” value (all weeds; 8 d after treatment, cyanamide 75 mg/kg soil) was 2.6 and the “Weeds Per Pot: All Weeds” value (all weeds; 8 d after treatment, cyanamide 150 mg/kg soil) was 0.6. The “Weeds Per Pot: All Weeds” value (all weeds; 14 d after treatment, cyanamide 75 mg/kg soil) was 8.7, the “Weeds Per Pot: All Weeds” value (all weeds; 14 d after treatment, cyanamide 150 mg/kg soil) was 4.6 and the “Weeds Per Pot: All Weeds” value (all weeds; 20 d after treatment, cyanamide 75 mg/kg soil) was 15.1. For the same compound, the “Weeds Per Pot: All Weeds” value (all weeds; 20 d after treatment, cyanamide 150 mg/kg soil) was 9.9, the “Weeds Per Pot: All Weeds” value (all weeds; 27 d after treatment, cyanamide 75 mg/kg soil) was 17 and the “Weeds Per Pot: All Weeds” value (all weeds; 27 d after treatment, cyanamide 150 mg/kg soil) was 13.3. The “Weeds Per Pot (combined weed species)” value (combined weed species; 9 d after treatment, cyanamide 50 mg/kg soil) was 15.0, the “Weeds Per Pot (combined weed species)” value (combined weed species; 9 d after treatment, cyanamide 100 mg/kg soil) was 1.6 and the “Weeds Per Pot (combined weed species)” value (combined weed species; 9 d after treatment, cyanamide 150 mg/kg soil) was 0.2. The “Weeds Per Pot (combined weed species)” value (combined weed species; 9 d after treatment, cyanamide 200 mg/kg soil) was 0, the “Weeds Per Pot (combined weed species)” value (combined weed species; 9 d after treatment, cyanamide 250 mg/kg soil) was 0 and the “Weeds Per Pot (combined weed species)” value (combined weed species; [1]) was 14.4. The “Weeds Per Pot (combined weed species)” value (combined weed species; [2]) was 14.0, the “Weeds Per Pot (combined weed species)” value (combined weed species; [3]) was 0.9 and the “Weeds Per Pot (combined weed species)” value (combined weed species; [4]) was 0. The “Weeds Per Pot (combined weed species)” value (combined weed species; [5]) was 0, the “Weeds Per Pot (combined weed species)” value (combined weed species; [6]) was 11.2 and the “Weeds Per Pot (combined weed species)” value (combined weed species; [7]) was 4.8. The “Weeds Per Pot (combined weed species)” value (combined weed species; [8]) was 1.6, the “Weeds Per Pot (combined weed species)” value (combined weed species; [9]) was 0.3 and the “Weeds Per Pot (combined weed species)” value (combined weed species; [10]) was 0. For the same compound, the “Weeds Per Pot (combined weed species)” value (combined weed species; [11]) was 21.5, the “Weeds Per Pot (combined weed species)” value (combined weed species; [12]) was 10.0 and the “Weeds Per Pot (combined weed species)” value (combined weed species; [13]) was 3.0. For the same compound, the “Weeds Per Pot (combined weed species)” value (combined weed species; [14]) was 0.8, the “Weeds Per Pot (combined weed species)” value (combined weed species; [15]) was 0.8 and the “Weeds Per Pot: Morningglory” value (morningglory; [1]) was 0. For the same compound, the “Weeds Per Pot: Morningglory” value (morningglory; [2]) was 0, the “Weeds Per Pot: Morningglory” value (morningglory; [3]) was 0 and the “Weeds Per Pot: Morningglory” value (morningglory; [4]) was 0. For the same compound, the “Weeds Per Pot: Morningglory” value (morningglory; [5]) was 0, the “Weeds Per Pot: Morningglory” value (morningglory; [6]) was 0 and the “Weeds Per Pot: Morningglory” value (morningglory; [7]) was 0. For the same compound, the “Weeds Per Pot: Morningglory” value (morningglory; [8]) was 0, the “Weeds Per Pot: Morningglory” value (morningglory; [9]) was 0 and the “Weeds Per Pot: Morningglory” value (morningglory; [10]) was 0. For the same compound, the “Weeds Per Pot: Morningglory” value (morningglory; [11]) was 1.6, the “Weeds Per Pot: Morningglory” value (morningglory; [12]) was 0.7 and the “Weeds Per Pot: Morningglory” value (morningglory; [13]) was 0.4. The “Weeds Per Pot: Morningglory” value (morningglory; [14]) was 0.3 and the “Weeds Per Pot: Morningglory” value (morningglory; [15]) was 0.1.
